# Target: T1, recombinant human GR (Homo sapiens, UniProt P04150)
# T1 construct: purchased Panvera/Invitrogen P2812 (kit P2893)
# T1 sequence (P04150 1-777): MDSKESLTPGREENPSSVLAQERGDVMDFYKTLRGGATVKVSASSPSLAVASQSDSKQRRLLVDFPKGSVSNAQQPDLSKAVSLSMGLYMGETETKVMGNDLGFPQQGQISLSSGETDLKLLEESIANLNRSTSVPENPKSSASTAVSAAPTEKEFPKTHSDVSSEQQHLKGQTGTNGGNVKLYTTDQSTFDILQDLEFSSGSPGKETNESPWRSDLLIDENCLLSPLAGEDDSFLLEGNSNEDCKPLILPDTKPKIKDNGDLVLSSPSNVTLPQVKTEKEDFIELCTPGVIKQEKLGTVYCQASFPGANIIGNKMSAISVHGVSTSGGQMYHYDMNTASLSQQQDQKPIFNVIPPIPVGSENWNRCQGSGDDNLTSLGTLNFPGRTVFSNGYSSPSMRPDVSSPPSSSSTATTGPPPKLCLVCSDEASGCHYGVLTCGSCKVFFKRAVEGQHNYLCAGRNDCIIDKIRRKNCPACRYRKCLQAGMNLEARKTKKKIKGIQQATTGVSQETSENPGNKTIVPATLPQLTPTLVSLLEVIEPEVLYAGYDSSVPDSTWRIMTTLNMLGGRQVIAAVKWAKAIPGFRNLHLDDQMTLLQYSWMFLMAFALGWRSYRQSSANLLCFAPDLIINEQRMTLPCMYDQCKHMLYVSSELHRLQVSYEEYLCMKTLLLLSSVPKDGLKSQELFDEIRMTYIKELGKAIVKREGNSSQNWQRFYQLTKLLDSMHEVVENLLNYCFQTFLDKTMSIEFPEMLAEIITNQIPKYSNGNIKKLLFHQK
# Assay: Human Glucocorticoid Receptor (GR) Assay (fluorescence polarization, Panvera/Invitrogen kit)
# Format: binding
# Settings: not given
# Outline: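 Fluorescence polarization competition with recombinant GR and GS Red fluorescent ligand plus stabilizing peptide and DTT in potassium phosphate/sodium molybdate/EDTA buffer with DMSO. Incubated 2 hours at room temperature in the dark; 0% control DMSO, 100% control 10 μM dexamethasone.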
row,Structure (SMILES),IC50
1,"C[C@]12Cc3cnn(-c4ccc(F)cc4)c3C=C1CC[C@@H]1[C@@H]2[C@@H](O)C[C@@]2(C)[C@H]1CC[C@]2(OC(=O)CF)C(=O)SCC#N [Example 27, (1R,3aS,3bS,10aR,10bS,1,1S,12aS)-1-{[(Cyanomethyl)thio]carbonyl}-7-(4-fluoro-phenyl)-11-hydroxy-10a,12a-dimethyl-1,2,3,3a,3b,4,5,7,10,10a,10b,11,12,12a-tetradecahydrocyclopenta[5,6]naphtho[1,2-f]indazol-1-yl fluoroacetate]",3 nM

# Same assay, conditions: fluorescence polarization; GS Red tracer; 2 hours at room temperature; 100% control 10 μM Dexamethasone; read-out: Inhibition of GR binding, IC50
row,Structure (SMILES),IC50
1,"C[C@]12Cc3cnn(-c4ccc(F)cc4)c3C=C1CC[C@@H]1[C@@H]2[C@@H](O)C[C@@]2(C)[C@H]1CC[C@]2(OC(=O)c1ccno1)C(=O)SCF [Example 60, (1R,3aS,3bS,10aR,10bS,11S,12aS)-1-{[(Fluoromethyl)thio]carbonyl}-7-(4-fluorophenyl)-11-hydroxy-10a,12a-dimethyl-1,2,3,3a,3b,4,5,7,10,10a,10b,11,12,12a-tetradecahydropcyclopenta[5,6]naphtho[1,2]-indazol-1-yl isoxazole-5-carboxylate]",4.5 nM
2,"COCSC(=O)[C@@]1(OC(=O)COC)CC[C@H]2[C@@H]3CCC4=Cc5c(cnn5-c5ccc(F)nc5)C[C@]4(C)[C@H]3[C@@H](O)C[C@@]21C [Example 158, (1R,3aS,3bS,10aR,10bS,11S,12aS)-7-(6-Fluoropyridin-3-yl)-11-hydroxy-1-{[(methoxymethyl)sulfanyl]carbonyl}-10a,12a-dimethyl-1,2,3,3a,3b,4,5,7,10,10a,10b,11,12,12a-tetradecahydrocyclopenta[5,6]naphtho[1,2-f]indazol-1-yl methoxyacetate]",2.4 nM
3,"C[C@]12Cc3cnn(-c4ccc(F)cc4)c3C=C1CC[C@@H]1[C@@H]2[C@@H](O)C[C@@]2(C)[C@H]1CC[C@]2(OC(=O)c1nccs1)C(=O)SCC#CCO [Example 41, (1R,3aS,3bS,10aR,10bS,11S,12aS)-7-(4-Fluorophenyl)-11-hydroxy-{[(4-hydroxy-but-2-yn-1-yl)thio]carbonyl}-10a,12a-dimethyl-1,2,3,3a,3b,4,5,7,10,10a,10b,11,12,12a-tetradecahydrocyclopenta[5,6]naphtho[1,2-f]indazol-1-yl 1,3-thiazole-2-carboxylate]",4.1 nM
4,"C[C@]12Cc3cnn(-c4ccc(F)c(CO)c4)c3C=C1CC[C@@H]1[C@@H]2[C@@H](O)C[C@@]2(C)[C@H]1CC[C@]2(OC(=O)C1CC1)C(=O)SCF [Example 139, (1R,3aS,3bS,10aR,10bS,11S,12aS)-7-[4-Fluoro-3-(hydroxymethyl)phenyl]-1-{[(fluoromethyl)thio]carbonyl}-11-hydroxy-10a,12a-dimethyl-1,2,3,3a,3b, 4,5,7,10,10a,10b,11,12,12a-tetradecahydrocyclopenta[5,6]naphtho[1,2-f]indazol-1-yl cyclopropanecarboxylate]",3.5 nM
5,"Cc1ccoc1C(=O)O[C@]1(C(=O)SCF)CC[C@H]2[C@@H]3CCC4=Cc5c(cnn5-c5ccc(F)cc5)C[C@]4(C)[C@H]3[C@@H](O)C[C@@]21C [Example 57, (1R,3aS,3bS,10aR,10bS,11S,12aS)-1-{[(Fluoromethyl)thio]carbonyl}-7-(4-fluorophenyl)-11-hydroxy-10a,12a-dimethyl-1,2,3,3a,3b,4,5,7,10,10a,10b,11,12,12a-tetradecaphydrocyclopenta[5,6]naphtho[1,2-f]indazol-1-yl 3-methylfuran-2-carboxylate]",3.8 nM
6,"C[C@]12Cc3cnn(-c4ccc(F)c(CO)c4)c3C=C1CC[C@@H]1[C@@H]2[C@@H](O)C[C@@]2(C)[C@H]1CC[C@]2(OC(=O)c1ccco1)C(=O)SCF [Example 81, (1R,3aS,3bS,10aR,10bS,11S,12aS)-7-[4-Fluoro-3-(hydroxymethyl)phenyl]-1-{[(fluoromethyl)thio]carbonyl}-11-hydroxy-10a,12a-dimethyl-1,2,3,3a,3b,4,5,7,10,10a,10b,11,12,12a-tetradecahydrocyclopenta[5,6]naphtho[1,2-f]indazol-1-yl furan-2-carboxylate]",4.5 nM
7,"C[C@]12Cc3cnn(-c4ccc(F)nc4)c3C=C1CC[C@@H]1[C@@H]2[C@@H](O)C[C@@]2(C)[C@H]1CC[C@]2(OC(=O)[C@H]1CCCO1)C(=O)SCCO [Example 186, (1R,3aS,3bS,10aR,10bS,11S,12aS)-7-(6-Fluoropyridin-3-yl)-11-hydroxy-1-{[(2-hydroxyethyl)sulfanyl]carbonyl}-10a,12a-dimethyl-1,2,3,3a,3b,4,5,7,10,10a,10b,11,12,12a-tetradecahydrocyclopenta[5,6]naphtho[1,2-f]indazol-1-yl (2R)-tetrahydrofuran-2-carboxylate]",2.3 nM
8,"C=Cc1cccc(-n2ncc3c2C=C2CC[C@@H]4[C@H]([C@@H](O)C[C@@]5(C)[C@H]4CC[C@]5(OC(=O)c4ccco4)C(=O)SCF)[C@@]2(C)C3)c1 [Example 72, (1R,10aR,11S,12aS)-7-(3-Ethenylphenyl)-1-{[(fluoromethyl)thio]carbonyl}-11-hydroxy-10a,12a-dimethyl-1,2,3,3a,3b,4,5,7,10a,10b,11,12,12a-tetradecahydrocyclopenta[5,6]naphtho[1,2-f]indazol-1-yl furan-2-carboxylate]",17 nM
9,"C[C@]12Cc3cnn(-c4ccc(F)nc4)c3C=C1CC[C@@H]1[C@@H]2[C@@H](O)C[C@@]2(C)[C@H]1CC[C@]2(O)C(=O)SCC#N [Example 164, S-(Cyanomethyl)(1R,3aS,3bS,10aR,10bS,11S,12aS)-7-(6-fluoropyridin-3-yl)-1,11-dihydroxy-10a,12a-dimethyl-1,2,3,3a,3b,4,5,7,10,10a,10b,11,12,12a-tetradecahydrocyclopenta[5,6]naphtho[1,2-f]indazole-1-carbothioate]",1.4 nM
10,"COCC(=O)O[C@]1(C(=O)SCF)CC[C@H]2[C@@H]3CCC4=Cc5c(cnn5-c5ccc(F)nc5)C[C@]4(C)[C@@]3(F)[C@@H](O)C[C@@]21C [Example 206, (1R,3aS,3bS,10aS,10bR,11S,12aS)-1-{[(Fluoromethyl)sulfanyl]carbonyl}-10b-fluoro-7-(6-fluoropyridin-3-yl)-11-hydroxyl-1,2,3,3a,3b,4,5,7,10,10a,10b,11,12,12a-tetradecahydrocyclopenta[5,6]naphtho[1,2-f]indazol-1-yl methoxyacetate]",2.5 nM
11,"CCC(=O)O[C@]1(C(=O)SCC#N)CC[C@H]2[C@@H]3CCC4=Cc5c(cnn5-c5ccc(F)nc5)C[C@]4(C)[C@H]3[C@@H](O)C[C@@]21C [Example 97, (1R,3aS,3bS,10aR,10bS,11S,12aS)-1-{[(Cyanomethyl)sulfanyl]carbonyl}-7-(6-fluoropyridin-3-yl)-11-hydroxy-10a,12a-dimethyl-1,2,3,3a,3b,4,5,7,10,10a,10b,11,12,12a-tetradecahydrocyclopenta[5,6]naphtho[1,2-f]indazol-1-yl propanoate]",2.1 nM
12,"Cc1ncsc1C(=O)O[C@]1(C(=O)OCC#N)CC[C@H]2[C@@H]3CCC4=Cc5c(cnn5-c5ccc(F)cc5)C[C@]4(C)[C@H]3[C@@H](O)C[C@@]21C [Example 9, Cyanomethyl(1R,3aS,3bS,10aR,10bS,11S,12aS)-7-(4-fluorophenyl)-11-hydroxy-10a,12a-dimethyl-1-{[(4-methyl-1,3-thiazol-5-yl)carbonyl]oxy}-1,2,3,3a,3b,4,5,7,10,10a,10b,11,12,12a-tetradecahydrocyclopenta[5,6]naphtho[1,2-f]indazole-1-carboxylate]",9.4 nM
